The values below come from ChEMBL document CHEMBL1149714 (2007).

Converted amounts (≈) assume the structure as drawn.

What all share (assay type): functional
Test [1] concerns Escherichia coli. Nature of the test: Antibacterial activity against Escherichia coli NIHJJC2 after 20 hrs by agar dilution method.
The subject of a further test is Moraxella catarrhalis. The test can be described thus: Antibacterial activity against Moraxella catarrhalis ATCC 43617 after 20 hrs by agar dilution method. The note with it: ATCC 43617, 20 h.
Test [2] has as its system Haemophilus influenzae. Nature of the test: Antibacterial activity against Haemophilus influenzae ATCC 49766 after 20 hrs by agar dilution method. The note with it: ATCC 49766, 20 h.
Test [3] has as its system Haemophilus influenzae. Nature of the test: Antibacterial activity against beta-lactamase negative ampicillin resistant Haemophilus influenzae SR-11435 after 20 hrs by agar dilution method.
Test [4] concerns Enterobacter cloacae. Nature of the test: Antibacterial activity against Enterobacter cloacae ATCC 13047 after 20 hrs by agar dilution method. Particulars: ATCC 13047, 20 h.
The test system of another test is Staphylococcus aureus. Nature of the test: Antibacterial activity against […] Staphylococcus aureus SMITH after 20 hrs by agar dilution method.
Test [5] relates to Pseudomonas aeruginosa. The test can be described thus: Antibacterial activity against Pseudomonas aeruginosa SR24 after 20 hrs by agar dilution method.
Test [6] relates to Pseudomonas aeruginosa. The test can be described thus: Antibacterial activity against AmpC hyperproducing Pseudomonas aeruginosa SR24-12 after 20 hrs by agar dilution method.
Test [7] has as its system Enterobacter cloacae. Nature of the test: Antibacterial activity against AmpC producing Enterobacter cloacae SR-4321 after 20 hrs by agar dilution method.
Test [8] relates to Escherichia coli. The test can be described thus: Antibacterial activity against Toho 2 (ESBL) producing Escherichia coli SR-21003 after 20 hrs by agar dilution method.
The test system of another test is Streptococcus pneumoniae. The test can be described thus: Antibacterial activity against penicillin resistant Streptococcus pneumoniae SR-16675 after 20 hrs by agar dilution method.
Test [9] concerns Pseudomonas aeruginosa. Nature of the test: Antibacterial activity against Imipenem resistant Pseudomonas aeruginosa SR-6554 after 20 hrs by agar dilution method.
Test [10] deals with Pseudomonas aeruginosa. The test can be described thus: Antibacterial activity against Pseudomonas aeruginosa SR-5393 after 20 hrs by agar dilution method.

On to `C=C(O/N=C(\C(=O)N[C@@H]1C(=O)N2C(C(=O)[O-])=C(C[n+]3cccc4c3ccn4CCCNC)CS[C@H]12)c1nc(N)sc1Cl)C(=O)O`, for which the MIC against Escherichia coli [1] turned out to be 0.25 µg/mL (≈ 0.37 µM); against Moraxella catarrhalis, 0.016 µg/mL (≈ 0.0237 µM); against Haemophilus influenzae [2] it was 0.032 µg/mL (≈ 0.0474 µM); against Haemophilus influenzae [3] it was 0.063 µg/mL (≈ 0.0933 µM); with Enterobacter cloacae [4] it was 0.25 µg/mL (≈ 0.37 µM); with Staphylococcus aureus, 0.5 µg/mL (≈ 0.741 µM). Moreover, the MIC was 2 µg/mL (≈ 2.96 µM) against Pseudomonas aeruginosa [5]; 8 µg/mL (≈ 11.8 µM) in the test on Pseudomonas aeruginosa [6]; 1 µg/mL (≈ 1.48 µM) against Enterobacter cloacae [7]; 1 µg/mL (≈ 1.48 µM) against Escherichia coli [8]; 2 µg/mL (≈ 2.96 µM) with Streptococcus pneumoniae; 32 µg/mL (≈ 47.4 µM) against Pseudomonas aeruginosa [9]. Besides, the MIC with Pseudomonas aeruginosa [10] was determined as 8 µg/mL (≈ 11.8 µM).
Take `CNCCCn1ccc2c1ccc[n+]2CC1=C(C(=O)[O-])N2C(=O)[C@@H](NC(=O)/C(=N\O[C@@H](C)C(=O)O)c3csc(N)n3)[C@H]2SC1`: the MIC came out at 0.063 µg/mL (≈ 0.098 µM) with Escherichia coli [1]; 0.125 µg/mL (≈ 0.194 µM) in the test with Moraxella catarrhalis; 0.032 µg/mL (≈ 0.0498 µM) against Haemophilus influenzae [2]; 0.063 µg/mL (≈ 0.098 µM) against Haemophilus influenzae [3]; 0.25 µg/mL (≈ 0.389 µM) against Enterobacter cloacae [4]; 2 µg/mL (≈ 3.11 µM) in the test on Staphylococcus aureus. Moreover, the MIC was 0.5 µg/mL (≈ 0.778 µM) against Pseudomonas aeruginosa [5]; 32 µg/mL (≈ 49.8 µM) in the test on Pseudomonas aeruginosa [6]; 16 µg/mL (≈ 24.9 µM) in the test with Enterobacter cloacae [7]; 1 µg/mL (≈ 1.56 µM) against Escherichia coli [8]; 8 µg/mL (≈ 12.4 µM) in the test on Streptococcus pneumoniae; 16 µg/mL (≈ 24.9 µM) in the test on Pseudomonas aeruginosa [9]. In the test on Pseudomonas aeruginosa [10], the MIC is 2 µg/mL (≈ 3.11 µM).
As to `CNCCCn1ccc2c1ccc[n+]2CC1=C(C(=O)[O-])N2C(=O)[C@@H](NC(=O)/C(=N\OC3(C(=O)O)CC3)c3nc(N)sc3Cl)[C@H]2SC1`, the MIC with Escherichia coli [1] came out at 0.5 µg/mL (≈ 0.726 µM); in the test on Moraxella catarrhalis, 0.008 µg/mL (≈ 0.0116 µM); with Haemophilus influenzae [2], 0.016 µg/mL (≈ 0.0232 µM); with Haemophilus influenzae [3], 0.032 µg/mL (≈ 0.0464 µM); in the test with Enterobacter cloacae [4] it was 0.5 µg/mL (≈ 0.726 µM); with Staphylococcus aureus, 1 µg/mL (≈ 1.45 µM). Further, the MIC came to 1 µg/mL (≈ 1.45 µM) in the test with Pseudomonas aeruginosa [5]; 4 µg/mL (≈ 5.8 µM) against Pseudomonas aeruginosa [6]; 2 µg/mL (≈ 2.9 µM) in the test with Enterobacter cloacae [7]; 4 µg/mL (≈ 5.8 µM) against Escherichia coli [8]; 4 µg/mL (≈ 5.8 µM) in the test with Streptococcus pneumoniae; 16 µg/mL (≈ 23.2 µM) with Pseudomonas aeruginosa [9]. Further, in the test with Pseudomonas aeruginosa [10], the MIC turned out to be 4 µg/mL (≈ 5.8 µM).
As to `CC[C@H](O/N=C(\C(=O)N[C@@H]1C(=O)N2C(C(=O)[O-])=C(C[n+]3cccc4c3ccn4CCCNC)CS[C@H]12)c1nc(N)sc1Cl)C(=O)O`, the MIC in the test with Escherichia coli [1] was determined as 1 µg/mL (≈ 1.45 µM); against Moraxella catarrhalis, 0.016 µg/mL (≈ 0.0231 µM); against Haemophilus influenzae [2], 0.032 µg/mL (≈ 0.0463 µM); in the test with Haemophilus influenzae [3] it was 0.063 µg/mL (≈ 0.0911 µM); in the test with Enterobacter cloacae [4], 1 µg/mL (≈ 1.45 µM); against Staphylococcus aureus, 1 µg/mL (≈ 1.45 µM). In addition, the MIC against Pseudomonas aeruginosa [5] amounted to 1 µg/mL (≈ 1.45 µM); with Pseudomonas aeruginosa [6] it was 4 µg/mL (≈ 5.79 µM); in the test with Enterobacter cloacae [7], 4 µg/mL (≈ 5.79 µM); in the test with Escherichia coli [8], 4 µg/mL (≈ 5.79 µM); in the test on Streptococcus pneumoniae, 4 µg/mL (≈ 5.79 µM); against Pseudomonas aeruginosa [9] it was 16 µg/mL (≈ 23.1 µM). In the test with Pseudomonas aeruginosa [10], this compound came in with an MIC of 4 µg/mL (≈ 5.79 µM).
As for `CO/N=C(\C(=O)N[C@@H]1C(=O)N2C(C(=O)[O-])=C(C[N+]3(C)CCCC3)CS[C@H]12)c1csc(N)n1`, the MIC in the test with Escherichia coli [1] amounted to 0.063 µg/mL (≈ 0.131 µM); with Moraxella catarrhalis, 0.5 µg/mL (≈ 1.04 µM); with Haemophilus influenzae [2], 0.032 µg/mL (≈ 0.0666 µM); in the test with Haemophilus influenzae [3], 0.5 µg/mL (≈ 1.04 µM); with Staphylococcus aureus it was 2 µg/mL (≈ 4.16 µM); against Pseudomonas aeruginosa [5] it was 0.5 µg/mL (≈ 1.04 µM). The MIC against Pseudomonas aeruginosa [6] was found to be 32 µg/mL (≈ 66.6 µM); in the test with Escherichia coli [8] it was 4 µg/mL (≈ 8.32 µM); against Streptococcus pneumoniae, 2 µg/mL (≈ 4.16 µM); in the test with Pseudomonas aeruginosa [9], 64 µg/mL (≈ 133 µM); against Pseudomonas aeruginosa [10], 4 µg/mL (≈ 8.32 µM).
For the compound `CNCCCn1cnc2c1ccc[n+]2CC1=C(C(=O)[O-])N2C(=O)[C@@H](NC(=O)/C(=N\OC(C)(C)C(=O)O)c3csc(N)n3)[C@H]2SC1`, the MIC was 0.5 µg/mL (≈ 0.76 µM) in the test with Escherichia coli [1]; 4 µg/mL (≈ 6.08 µM) in the test with Enterobacter cloacae [4]; 1 µg/mL (≈ 1.52 µM) in the test with Pseudomonas aeruginosa [5]; over 128 µg/mL in the test with Pseudomonas aeruginosa [6]; 128 µg/mL (≈ 195 µM) with Enterobacter cloacae [7]; 2 µg/mL (≈ 3.04 µM) in the test on Escherichia coli [8]. For the same compound, the MIC in the test with Pseudomonas aeruginosa [9] came out at 128 µg/mL (≈ 195 µM); against Pseudomonas aeruginosa [10] it was 4 µg/mL (≈ 6.08 µM).
In the case of `CNCCCn1ccc2c1ccc[n+]2CC1=C(C(=O)[O-])N2C(=O)[C@@H](NC(=O)/C(=N\O[C@H](C)C(=O)O)c3nc(N)sc3Cl)[C@H]2SC1`, the MIC in the test with Escherichia coli [1] worked out at 0.5 µg/mL (≈ 0.738 µM); against Moraxella catarrhalis, 0.032 µg/mL (≈ 0.0473 µM); in the test on Haemophilus influenzae [2], 0.063 µg/mL (≈ 0.093 µM); with Haemophilus influenzae [3] it was 0.25 µg/mL (≈ 0.369 µM); in the test with Enterobacter cloacae [4] it was 1 µg/mL (≈ 1.48 µM); against Staphylococcus aureus, 2 µg/mL (≈ 2.95 µM). The MIC in the test on Pseudomonas aeruginosa [5] was determined as 1 µg/mL (≈ 1.48 µM); with Pseudomonas aeruginosa [6], 4 µg/mL (≈ 5.91 µM); against Enterobacter cloacae [7] it was 4 µg/mL (≈ 5.91 µM); against Escherichia coli [8], 4 µg/mL (≈ 5.91 µM); with Streptococcus pneumoniae it was 4 µg/mL (≈ 5.91 µM); against Pseudomonas aeruginosa [9], 16 µg/mL (≈ 23.6 µM). Further, the MIC against Pseudomonas aeruginosa [10] worked out at 4 µg/mL (≈ 5.91 µM).
